Series [1] has as its system acutely ischemic muscle. Nature of the series: Contractility in the acutely ischemic muscle. It is filed as in vivo. The procedure: The contractility in the acutely ischemic muscle was measured in a similar experimental procedure, as described under 1). The muscle, initially normally supplied with blood, was made to contract isometrically by direct electrical stimulation (1.2 Hz, 2.5 mA). The right femoral artery was then occluded for 5 min by means of a clamp. […] The vessel was then reopened and the starting contractility before the first occlusion was attained. During the second occlusion which then followed, the preparations to be tested were administered intravenously in aqueous solution via the jugular vein. 4-8 animals were employed per preparation and dose. The decrease in the contractility during occlusion with and without substance administration was compared and the percentage change was used to evaluate the substance activity. The substances according to the invention, for example the compound of Example 7, were also remarkable in this test for outstanding effects.

Series [2] deals with photochemically-induced thrombosis in mesenterial arterioles. Nature of the series: Inhibition of photochemically-induced thrombosis in mesenterial arterioles. It counts as in vivo, rat. The procedure:
In this model, rats were anesthetized as described above under 2). The investigations were carried out on mesenterial arterioles having a diameter of 11 to 50 lm. A thrombosis was induced in a modification in accordance with a method known from the literature (Herrmann, K. H. Microvasc. Res. 26, 238-249, 1983) and is based on the photochemical release of singlet oxygen, which leads locally to an endothelial lesion. The animals to be investigated received an intravenous injection of 0.3 ml of a 10% strength solution of fluorescein in isothiocyanate--Dextran 70 (FITC--Dextran 70 s, Sigma, Munich). The arterole was looked for under the microscope and centered in the observation field. The FITC--Dextran in the blood vessel was then excited using a special lamp and filter device (excitation 490 nm, emission 510 nm). For evaluation of thrombus formation, the time was taken which extended from the point of excitation to the formation of a first thrombus on the wall. 5 vessels in each animal were examined in this manner.

Series [3] deals with laser-induced thrombosis in mesenterial arterioles. Nature of the series: Inhibition of laser-induced thrombosis in mesenterial arterioles of the rat. It is filed as in vivo, rat (female Sprague-Dawley). Particulars: Rattus norvegicus, po; 10 mg/kg p.o.; read-out: Percentage change vs control (inhibition of laser-induced thrombosis).
The test system of series [4] is laser-induced thrombosis. Nature of the series: Inhibition of laser-induced thrombosis in hyperlipidemic, spontaneously hypertensive, stroke-prone rats. It is filed as in vivo, rat (hyperlipidemic hypertensive).
The nature of series [5]: Acute toxicity (LD50 range). Particulars: mouse, in vivo, iv, single administration, NMRI mice, 7 days. The protocol:
The determination of the LD50 ranges was carried out in standard fashion by means of the mortality occurring in the course of 7 days in NMRI mice after single intravenous (i.v.) or intraperitoneal (i.p.) administration (NMRI=NIH Medical Research Institute).

The subject of series [6] is laser-induced thrombosis. Nature of the series: Inhibition of laser-induced thrombosis in atherosclerotic rabbits. Particulars: 30 mg/kg daily for 14 days. It is filed as in vivo, rabbit (atherosclerotic).
Series [7] relates to capillary bed of the skeletal muscle of the rat. Nature of the series: Laser-Doppler flow measurement of erythrocyte flux in acutely ischemic skeletal muscle. It counts as in vivo, rat (male Wistar). The conditions noted are these: during occlusion. The protocol:
Using laser-Doppler flow measurements (LDF), the erythrocyte flux (the number of cells flowing past under the laser beam x their velocity) can be measured in a noninvasive and continuous manner in the capillary bed of the skeletal muscle of the rat (perimed PF2 laser-Doppler flowmeter, Perimed, Sweden). […] The apparatus was set as follows: 12 kHz, gain 10, time constant 1.5 sec, 37° C. The right femoral artery of male Wistar rats having a body weight of 380-430 g was exposed and the skin and the connective tissue was dissected away over a small muscle area (anterior tibia). The probe was placed about 1 mm above this area. […] At this point, the test substances were infused intravenously in aqueous solution (0.03 and 0.6 mg/kg/min). The maximum percentage increase in the erythrocyte flux after administration of substance during the occlusion (see also Okyayuz-Baklouti, I., European J. of Pharmacology, 166: 75-86, 1989) was used as the measuring parameter for the substance activity. […] 3-7 animals were employed per preparation and dose.

For series [8], the system named is skeletal muscle of the rat (chronic ischemic). Nature of the series: Effect on the contractility of the skeletal muscle after chronic ischemia (tiring index). It is filed as in vivo, rat (male Wistar). Particulars: 6 mg/kg p.o. over 7 days, n = 4-6. From the text:
1) Effect on the Contractility of the Skeletal Muscle After Chronic Ischemia
In recent years, a marked change has taken place in ideas about the pathophysiology of chronic peripheral arterial occlusive disease as scientific interest has to an increasing extent shifted from the macrocirculation to the microcirculation. Disturbances in the microcirculation therefore manifest themselves in an undersupply of substrates with tissue ischemia resulting therefrom which, in turn, leads to an impairment in the function of the extremity concerned. The logical consequence of this is that the target organ skeletal muscle comes more and more into the forefront. […] The clinical activity is in fact also consistently determined in humans with the aid of the painless walking distance on the moving walkway.
Male Wistar rats having a body weight of 380 to 410 g were used as experimental animals. Under hexobarbital anesthesia (®Evipan--sodium, 200 mg/kg BW (=body weight) i.p.), a unilateral ligature of the right femoral artery was applied to the animals in the groin. After sprinkling penicillin sulfonamide powder for antibiotic wound care, the small operation wound was closed and the animals were continuously observed until they were completely awake. One week later, the administration of substance began by oral administration using a stomach tube (6 mg/kg BW, carboxymethylcellulose-sodium suspension) and was continued for 7 days (single administration per day, about 7h30 to 8h30). The contractility was measured 24 h after the last administration of substance in order to exclude acute effects, to be precise by the following experimental protocol:
Superfusion with physiological saline solution (37° C.) was used to avoid drying out and cooling. The mean arterial blood pressure was recorded continuously via Statham (=blood pressure measuring device) by means of a cannulated caroted artery to control the physiological status of the animals during the experiment. All animals breathed spontaneously by means of an inserted tracheal tube.
After these preparations, the muscle was made to contract (Stimulator I, Hugo Sachs, Federal Republic of Germany) by direct electrical stimulation (2.5 mA, 2 Hz). The absolute contractility in grams at various times of stimulation was used as the measured parameter. […] If the maximum contractility at the start of stimulation is now divided by the residual force remaining after 5 minutes' tiring stimulation, a "tiring index TI" for the muscle concerned can be calculated; the ability to tire here is larger the larger TI is numerically.
4 to 6 individual experiments were carried out for each test preparation.

For `Cn1cnc(S(=O)(=O)NCCCN2CCOCC2)c1` [Example 7, N-(3-Morpholinopropyl)-1-methyl-4-imidazolesulfonamide], the “improvement of contractility in the acutely ischemic muscle” value in series [1] (0.03 mg/kg/min i.v.) is listed as “+17.2%”; in series [1] (0.3 mg/kg/min i.v.), “+25.2%”. Further, the “inhibition of photochemically-induced thrombosis” value in series [2] (1 mg/kg p.o.) is given as 69%; in series [2] (3 mg/kg i.v.), 36%; in series [2] (3 mg/kg p.o.), 75%; in series [2] (10 mg/kg i.v.) it was 56%; in series [2] (10 mg/kg p.o.), 130%. Besides, the “inhibition of photochemically-induced thrombosis (in words)” value in series [2] (rat, in vivo) is “inhibited in a dose-dependent and statistically significant manner”. In series [3], the inhibition in vivo at 10 mg/kg came to 36%. In addition, the figures for the “inhibition of laser-induced thrombosis” value in series [4] (10 mg/kg daily for 7 days), in series [4] (30 mg/kg daily for 7 days) and in series [6] were 18%, 32% and 36%, respectively. The LD50 at 168 h in series [5] is greater than 100 mg/kg. The “maximum percentage increase in the erythrocyte flux” value in series [7] (0.03 mg/kg/min i.v. infusion) is recorded as “+53.3%”; in series [7] (0.6 mg/kg/min i.v. infusion), “+80.6%”. Also, the “TI of ischemic treated muscle” value in series [8] (tiring index = maximum contractility / residual force after 5 min stimulation) was found to be 2.79. In addition, the change in vivo at 6 mg/kg in series [8] (Rattus norvegicus, po, 168 h, smaller value = more effective, read-out: Percentage change (TI of ischemic treated muscle vs TI of normal non-treated muscle)) came out at 0.3%.

These data come from patent publication US5232922A, “Imidazole compounds, processes for their preparation, pharmaceuticals based on these compounds and some intermediates” (priority 1990, dated 1993).
